Assay results: US9963448B2, “Bicyclic inhibitors of PAD4” (Padlock Therapeutics, Inc., priority 2015, dated 2018)
Structures can show the parent of a compound that is named as a salt. Where two headings read alike, the source gives them in different places.

What was measured:
mPAD4 = mPAD4 (Mus musculus, UniProt Q9Z183); assay: mPAD4 RFMS PAD4 inhibition assay; type: biochemical; conditions: mPAD4, RFMS readout;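 for mPAD4 RFMS pIC50: grade E means pIC50 at most 4 and F means pIC50 4.0 to 5.0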
Procedure: (§1) Compounds of the present invention were assayed as inhibitors of PAD4 using the assay protocol described below.
(§2) Compound stock solutions were stored at RT. […] Final assay conditions were as follows:
(§3) Total incubation time: 65 mins at 37° C.
(§4) Stop solution: 40 μl 5% TCA in ACN
(§5) The compound numbers correspond to the compound numbers in Table 1. […] The term pIC50=−log(IC50). […] “NA” stands for “not assayed.”

hPAD4 = hPAD4 (Homo sapiens, UniProt Q9UM07); assay: hPAD4 RFMS (RapidFire mass spectrometry) PAD4 inhibition assay; type: biochemical; conditions: hPAD4 enzyme, RFMS readout;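 for hPAD4 RFMS pIC50: grade E means pIC50 at most 4 and F means pIC50 4.0 to 5.0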
Chain of hPAD4 (Q9UM07 whole entry): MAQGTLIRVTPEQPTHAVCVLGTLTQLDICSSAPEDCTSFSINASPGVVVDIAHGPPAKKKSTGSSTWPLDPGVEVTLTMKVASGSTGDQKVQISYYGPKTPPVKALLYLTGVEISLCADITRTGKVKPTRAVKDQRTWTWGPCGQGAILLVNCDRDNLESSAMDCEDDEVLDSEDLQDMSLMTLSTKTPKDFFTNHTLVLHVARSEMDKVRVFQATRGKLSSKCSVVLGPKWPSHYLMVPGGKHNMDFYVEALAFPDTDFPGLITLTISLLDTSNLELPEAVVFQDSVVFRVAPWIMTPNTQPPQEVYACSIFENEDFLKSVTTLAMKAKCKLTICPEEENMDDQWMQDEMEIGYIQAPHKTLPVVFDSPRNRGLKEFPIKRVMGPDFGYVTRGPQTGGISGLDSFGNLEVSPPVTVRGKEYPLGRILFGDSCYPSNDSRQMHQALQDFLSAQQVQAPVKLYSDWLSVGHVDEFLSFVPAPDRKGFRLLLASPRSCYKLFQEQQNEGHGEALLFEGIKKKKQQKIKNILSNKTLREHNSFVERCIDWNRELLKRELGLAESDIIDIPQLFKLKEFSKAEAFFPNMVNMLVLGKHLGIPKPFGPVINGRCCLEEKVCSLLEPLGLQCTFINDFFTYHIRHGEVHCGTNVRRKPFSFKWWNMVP
Procedure: as §1, §2, §3, §4, §5

[1] = pIC50=−log(IC50), read-out: mPAD4 RFMS pIC50 (converted)
[2] = pIC50=−log(IC50), read-out: hPAD4 RFMS pIC50 (converted)

Chain of mPAD4 (Q9Z183 whole entry): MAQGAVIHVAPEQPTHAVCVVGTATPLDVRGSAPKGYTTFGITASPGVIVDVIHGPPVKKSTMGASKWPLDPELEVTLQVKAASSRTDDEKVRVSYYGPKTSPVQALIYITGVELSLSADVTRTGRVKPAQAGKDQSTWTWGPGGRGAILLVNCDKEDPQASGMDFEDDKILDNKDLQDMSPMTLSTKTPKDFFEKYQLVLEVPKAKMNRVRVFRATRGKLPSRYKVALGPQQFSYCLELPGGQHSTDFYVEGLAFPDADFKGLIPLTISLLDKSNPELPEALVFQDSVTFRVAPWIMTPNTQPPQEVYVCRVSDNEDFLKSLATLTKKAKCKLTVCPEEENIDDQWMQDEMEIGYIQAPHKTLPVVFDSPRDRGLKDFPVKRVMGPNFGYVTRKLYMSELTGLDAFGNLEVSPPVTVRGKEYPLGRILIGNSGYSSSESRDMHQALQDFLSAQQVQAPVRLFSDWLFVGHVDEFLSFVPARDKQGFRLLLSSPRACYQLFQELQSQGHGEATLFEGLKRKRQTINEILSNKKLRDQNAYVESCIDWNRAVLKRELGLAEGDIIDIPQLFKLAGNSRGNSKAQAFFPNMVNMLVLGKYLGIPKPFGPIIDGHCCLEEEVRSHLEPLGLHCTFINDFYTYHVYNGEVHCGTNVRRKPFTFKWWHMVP

Compound | IC50 (mPAD4; [1]) [µM] | IC50 (mPAD4; read-out: mPAD4 RFMS IC50) [µM] | IC50 (hPAD4; [2]) [µM] | IC50 (hPAD4; read-out: hPAD4 RFMS IC50) [µM] | mPAD4 RFMS pIC50 (mPAD4; pIC50=−log(IC50)) | hPAD4 RFMS pIC50 (hPAD4; pIC50=−log(IC50))
COc1cc(C(=O)N2CCC[C@@H](N)C2)cc2nc(-c3cc4cnc(C)nc4n3CC3CC3)n(C)c12 [Compound I-203] | 1 to 10 | 1 to 5 | < 1 | < 1 | – | –
CCn1c(-c2nc3cc(C(=O)N4C[C@H]5CC[C@@H]4[C@@H]5N)cc(OC)c3n2[C@H]2C[C@@H](OC)C2)cc2cccnc21 [Compound I-218] | 1 to 10 | 1 to 5 | 1 to 10 | 1 to 5 | – | –
CN[C@@H]1C[C@@H](O)CN(C(=O)c2cc(OC)c3c(c2)nc(-c2cc4cccnc4n2CC2CC2)n3C)C1 (racemic) [Compound I-77, Rel-(3R,5R)-1-{2-[1-(cyclopropylmethyl)-1H-pyrrolo[2,3-b]pyridin-2-yl]-7-methoxy-1-methyl-1H-1,3-benzodiazole-5-carbonyl}-5-(methylamino)piperidin-3-ol hydrochloride] | 10 to 100 | > 10 | 10 to 100 | > 10 | – | –
CCn1c(-c2nc3cc(C(=O)N4CCC[C@@H](N)C4)cc(F)c3n2CC)cc2cccnc21 [Compound I-151] | 1 to 10 | 5 to 10 | 1 to 10 | 1 to 5 | – | –
CCn1c(-c2nc3cc(C(=O)N4C[C@H]5CC[C@@H]4[C@@H]5N)cc(OC)c3n2[C@H]2C[C@H](OC)C2)cc2cccnc21 [Compound I-207] | 1 to 10 | 1 to 5 | 1 to 10 | 5 to 10 | – | –
COc1cc(C(=O)N2C[C@@H](N)CC[C@H]2C)cc2nc(-c3cc4cccnc4n3CC3CC3)n(C)c12 [Compound I-36] | < 1 | < 1 | < 1 | < 1 | – | –
COc1cc(C(=O)N2C[C@H](N)C[C@@H](F)C2)cc2nc(-c3cc4cccnc4n3CC3CC3)n(C[C@H]3C[C@@](C)(OC)C3)c12 [Compound I-209] | < 1 | < 1 | < 1 | < 1 | – | –
CO[C@@H]1CCN(C(=O)c2cc(OC(F)F)c3c(c2)nc(-c2cc4cccnc4n2CC2CC2)n3C)C[C@@H]1N [Compound I-124] | 1 to 10 | 5 to 10 | 10 to 100 | > 10 | – | –
Cn1c(-c2cc3cccnc3n2CC2CC2)nc2cc(C(=O)N3CC[C@H]4CCN[C@H]4C3)cc(OC(F)F)c21 (single isomer, unassigned) [Compound I-24, hydrochloride] | 10 to 100 | > 10 | 10 to 100 | > 10 | – | –
CCn1c(-c2nc3cc(C(=O)N4C[C@@H]5CC[C@H]4[C@H]5N)cc(OC)c3n2C)cc2ccc(OC)nc21 [Compound I-140] | 10 to 100 | > 10 | 1 to 10 | 5 to 10 | – | –
COc1cc(C(=O)N2CC[C@@H]3OCCN[C@@H]3C2)cc2nc(-c3cc4cccnc4n3CC3CC3)n(C)c12 [Compound I-29] | 1 to 10 | 5 to 10 | 10 to 100 | 5 to 10 | – | –
COc1cc(C(=O)N2C[C@@H]3CC[C@H]2[C@H](N)C3)cc2nc(-c3cc4cccnc4n3CC3CC3)n(C)c12 [Compound I-215] | – | > 10 | – | > 10 | E/F | E/F
Cn1c(-c2cc3cccnc3n2CC2CC2)nc2cc(C(=O)N3C[C@H]4CC[C@@H]3[C@@H]4N)cc(F)c21 [Compound I-191] | 1 to 10 | 1 to 5 | < 1 | < 1 | – | –
COc1cc(C(=O)N2CC[C@H]3OCCN[C@H]3C2)cc2nc(-c3cc4cccnc4n3CC3CC3)n(C)c12 [Compound I-28] | < 1 | < 1 | < 1 | < 1 | – | –
CCn1c(-c2nc3cc(C(=O)N4CCC[C@@H](N)C4)cc(OC)c3n2C)cc2ccc(OC(F)F)nc21 [Compound I-201] | < 1 | < 1 | < 1 | < 1 | – | –
COc1ccc2cc(-c3nc4cc(C(=O)N5C[C@H](N)C[C@@H](F)C5)cc(OC)c4n3C)n(CC3CC3)c2n1 [Compound I-123] | < 1 | < 1 | < 1 | < 1 | – | –
COc1ccc2cc(-c3nc4cc(C(=O)N5CCC[C@@H](N)C5)cc(OC)c4n3C)n(CC3CC3)c2n1 [Compound I-33, (3R)-1-{2-[1-(cyclopropylmethyl)-6-methoxy-1H-pyrrolo[2,3-b]pyridin-2-yl]-7-methoxy-1-methyl-1H-1,3-benzodiazole-5-carbonyl}piperidin-3-amine] | < 1 | < 1 | < 1 | < 1 | – | –
